Measured values taken from PubChem BioAssay (NCI).
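Step 1: Grow cells in 96-well plates. Step 2: Expose to compound for 48 hours at 5 concentrations. Step 3: Interpolate endpoints linearly; if unreached, use highest concentration. TGI: concentration producing complete growth inhibition.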

System: SNB-75 CNS
Test: NCI tumour cell line growth inhibition, 48 h

Point of comparison: `C=C1CC(c2ccc(OCCCN3C(=O)c4ccccc4C3=O)c(OC)c2)OC1=O` (centres undefined), TGI 8.06 µM. Against it:
- Cc1cccc(-c2nc3ccc([N+](=O)[O-])cc3c(=O)o2)c1 — higher, > 100 µM
- O=C1N=c2ccccc2=C1c1c(O)[nH]c2ccccc12 — 4.3-fold higher, 35 µM
- NC(N)=NCCN=C(N)N — higher, > 100 µM
- NC(=O)C(N)Cc1ccc(O)cn1 (centres undefined) — higher, > 100 µM
- COC(=O)C(C)(NC(=O)C(CC(=O)OC(C)(C)C)NC(=O)OC(C)(C)C)c1ccccc1 (centres undefined) — higher, > 100 µM
- COc1ccc(N=C2SC(=N/N=c3\sc4ccccc4n3C)SC2=Nc2ccc(OC)cc2)cc1 — 12-fold higher, 94.5 µM
- CCOC(=O)C1=CC(C)(C(=O)OCC)Nc2c(nc(OC)n(C)c2=O)N1 (centres undefined) — higher, > 10 µM
- S=C(c1c[nH]c2ccccc12)N1CCOCC1 — 9.2-fold higher, 74 µM
- CNc1ccc(OC)cc1S(=O)(=O)c1ccccc1[N+](=O)[O-] — higher, > 100 µM
- CC1(CCCO)CCCCCC(C)(CCCO)C1=O (centres undefined) — higher, > 100 µM
- COC(C)(C)C1=CCC(C)CC1 (centres undefined) — higher, > 100 µM

System: UACC-257 melanoma
Test: NCI tumour cell line growth inhibition, 48 h

Point of comparison: `CN(C)Cc1cc(C(=O)/C=C/c2ccc(Cl)cc2)cc(CN(C)C)c1O`, TGI 29.2 µM. Against it:
- CC1CC(N)=Nc2ccccc2N1 (centres undefined) — higher, > 100 µM
- O=C(O)c1n[nH]nc1Cl — higher, > 100 µM
- CN(c1ccc(Cl)cc1)S(=O)(=O)c1cccc([N+](=O)[O-])c1 — higher, > 100 µM
- CCC(=O)NC(Nc1cccc(F)c1C)(C(F)(F)F)C(F)(F)F — higher, > 100 µM
- Cc1cc2nc3c(C#N)c(-c4ccccc4)cc(Nc4ccc(Cl)cc4)n3c2cc1C — higher, > 100 µM
- CN(c1ccc(Cl)cc1)S(=O)(=O)c1ccc([N+](=O)[O-])cc1 — higher, > 100 µM
- O=S1(=O)OCCOS(=O)(=O)C1F — higher, > 100 µM
- O=c1[nH]c(-c2ccc3ccccc3c2)nc2ccccc12 — higher, > 100 µM
- CC(C)(C)C(=O)OCC1CCC[N+]2(C)CCCCC12 (centres undefined) — higher, > 100 µM
- COCCOCc1nc(C#N)c(N)o1 — higher, > 100 µM
- CN1C(=O)N/C(=C\c2ccc(S(=O)(=O)NN)cc2)C1=O — higher, > 100 µM
- O=S(=O)(c1ccccc1)n1c2cc3cccnc3nc2c2cccnc21 — higher, > 100 µM
- Cc1cc(N(CCC#N)CCC#N)ccc1/C(N=Nc1ccc([N+](=O)[O-])cc1)=N\NC(=O)c1cc(Cl)ccc1C(=O)c1ccccc1 — higher, > 100 µM
- CC(=O)c1c2c(cc3c1CC1(Cc4ccccc4C1=O)C3)CCC2 (centres undefined) — 2.2-fold higher, 64.6 µM
- Cc1cccc(-c2nc3ccc([N+](=O)[O-])cc3c(=O)o2)c1 — higher, > 100 µM
- O=C1N=c2ccccc2=C1c1c(O)[nH]c2ccccc12 — higher, > 100 µM
- NC(N)=NCCN=C(N)N — higher, > 100 µM
- NC(=O)C(N)Cc1ccc(O)cn1 (centres undefined) — higher, > 100 µM
- COC(=O)C(C)(NC(=O)C(CC(=O)OC(C)(C)C)NC(=O)OC(C)(C)C)c1ccccc1 (centres undefined) — higher, > 100 µM
- COc1ccc(N=C2SC(=N/N=c3\sc4ccccc4n3C)SC2=Nc2ccc(OC)cc2)cc1 — higher, > 100 µM
- CCOC(=O)C1=CC(C)(C(=O)OCC)Nc2c(nc(OC)n(C)c2=O)N1 (centres undefined) — not separable, > 10 µM
- S=C(c1c[nH]c2ccccc12)N1CCOCC1 — higher, > 100 µM
- CC1(CCCO)CCCCCC(C)(CCCO)C1=O (centres undefined) — higher, > 100 µM
- COC(C)(C)C1=CCC(C)CC1 (centres undefined) — higher, > 100 µM
- C=C1CC(c2ccc(OCCCN3C(=O)c4ccccc4C3=O)c(OC)c2)OC1=O (centres undefined) — 2.3-fold lower, 12.8 µM

System: UACC-62 melanoma
Test: NCI tumour cell line growth inhibition, 48 h

Point of comparison: `C=C1CC(c2ccc(OCCCN3C(=O)c4ccccc4C3=O)c(OC)c2)OC1=O` (centres undefined), TGI 10.2 µM. Against it:
- CC1CC(N)=Nc2ccccc2N1 (centres undefined) — higher, > 100 µM
- O=C(O)c1n[nH]nc1Cl — higher, > 100 µM
- CN(c1ccc(Cl)cc1)S(=O)(=O)c1cccc([N+](=O)[O-])c1 — higher, > 100 µM
- CCC(=O)NC(Nc1cccc(F)c1C)(C(F)(F)F)C(F)(F)F — higher, > 100 µM
- CN(c1ccc(Cl)cc1)S(=O)(=O)c1ccc([N+](=O)[O-])cc1 — higher, > 100 µM
- O=S1(=O)OCCOS(=O)(=O)C1F — higher, > 100 µM
- O=c1[nH]c(-c2ccc3ccccc3c2)nc2ccccc12 — higher, > 100 µM
- CC(C)(C)C(=O)OCC1CCC[N+]2(C)CCCCC12 (centres undefined) — higher, > 100 µM
- COCCOCc1nc(C#N)c(N)o1 — higher, > 100 µM
- CN1C(=O)N/C(=C\c2ccc(S(=O)(=O)NN)cc2)C1=O — higher, > 100 µM
- Cc1cc(N(CCC#N)CCC#N)ccc1/C(N=Nc1ccc([N+](=O)[O-])cc1)=N\NC(=O)c1cc(Cl)ccc1C(=O)c1ccccc1 — 3.6-fold higher, 36.9 µM
- Cc1cccc(-c2nc3ccc([N+](=O)[O-])cc3c(=O)o2)c1 — higher, > 100 µM
- O=C1N=c2ccccc2=C1c1c(O)[nH]c2ccccc12 — 3.8-fold higher, 39.2 µM
- NC(N)=NCCN=C(N)N — higher, > 100 µM
- COC(=O)C(C)(NC(=O)C(CC(=O)OC(C)(C)C)NC(=O)OC(C)(C)C)c1ccccc1 (centres undefined) — higher, > 100 µM
- COc1ccc(N=C2SC(=N/N=c3\sc4ccccc4n3C)SC2=Nc2ccc(OC)cc2)cc1 — higher, > 100 µM
- S=C(c1c[nH]c2ccccc12)N1CCOCC1 — higher, > 100 µM
- CNc1ccc(OC)cc1S(=O)(=O)c1ccccc1[N+](=O)[O-] — higher, > 100 µM
- CC1(CCCO)CCCCCC(C)(CCCO)C1=O (centres undefined) — higher, > 100 µM
- COC(C)(C)C1=CCC(C)CC1 (centres undefined) — higher, > 100 µM
